Key:
healthy human subject [1] = test: Stimulated saliva flow, case study of tolterodine and pilocarpine (Example 6); format: in vivo; details: 2 mg tolterodine tartrate alone
Protocol: In this study, the effect of tolterodine, pilocarpine, the combination of the two, and placebo was measured in separate, yet identical, studies in a single individual.
Effect of Tolterodine—A healthy human subject was given a 2 mg dose of tolterodine tartrate and the amount of salivation was measured with time over an 8 hour period. As shown in FIGS. 6 and 7 (♦, diamond), the amount of saliva flow collected over 2 minute periods decreased after dosing and the saliva flow remained low after 3 hrs.
Effect of Dose Ratio Between Tolterodine and Pilocarpine—In this experiment the results of two separate dose ratios between tolterodine and pilocarpine were compared with the results of placebo and administration of tolterodine alone. In one experiment, 2 mg of tolterodine was administered to a healthy individual and saliva flow was measured for 8 hours. Using a similar protocol, 2 mg of tolterodine was administered to a healthy individual at t=0, followed by 5 mg of pilocarpine at t=30 min. Similarly, 2 mg of tolterodine was administered to a healthy individual at t=0, followed by 10 mg of pilocarpine at t=30 min. Finally, the results were compared with the administration of placebo (FIG. 6 (●, closed circle)). […] Therefore, an effective dose ratio for the combination […] and pilocarpine is when 2 mg of tolterodine is combined with 10 mg of pilocarpine.
Effect of Combination of Tolterodine and Pilocarpine—In a separate human study, the combination of tolterodine and pilocarpine was administered to a healthy human subject. To the subject 2 mg of tolterodine followed by 10 mg of pilocarpine were administered with various delays in the administration of pilocarpine. Saliva flow was measured as before.
In one study, 10 mg of pilocarpine was administered to the subject 15 minutes after the administration of 2 mg of tolterodine. Saliva flow was measured as before. In another study, 10 mg of pilocarpine was administered to the subject 22 minutes after the administration of 2 mg of tolterodine. Saliva flow was measured as before. […] Saliva flow was measured as before.

healthy human subject [2] = test: Stimulated salivary flow, case study of oxybutynin and cevimeline alone and combined (Example 5); format: in vivo; details: for Amount of Saliva Collecetd over 2 min: cevimeline 30 mg and/or oxybutynin 5 mg oral, single subject, in g; for amount of saliva flow collected over 2 minute periods after dosing (in words) / time at which saliva flow reached the pre-dose level: single agent alone (oxybutynin HCl 5 mg; cevimeline 30 mg)
Protocol: In this study, the effect of oxybutynin, cevimeline, the combination of the two, and placebo was measured in separate studies in a single individual.
Effect of Oxybutynin—A healthy human subject was given a 5 mg dose of oxybutynin HCl and the amount of salivation was measured with time over an 8 hour period. As shown in FIG. 5 (●, circle), the amount of saliva flow collected over 2 minutes periods decreased after dosing and the saliva flow remained low after 3 hrs. The amount of saliva flow started increasing after 3 hrs and continued increasing reaching the pre-dose level after 8 hrs post-dosing. The data generated in this study is consistent with the literature data.
Effect of Cevimeline—In a separate human study the effect of administering 30 mg of cevimeline was evaluated in a healthy human subject to ensure that cevimeline indeed increases salivary gland flow. […] The decrease in saliva flow continued until it reached about the normal saliva flow and pre-dosing level after about 6 hrs.
Effect of Combination of Oxybutynin and Cevimeline—In a separate human study, the combination of oxybutynin and cevimeline was administered to a healthy human subject. To the subject 5 mg of oxybutynin followed simultaneously by 30 mg of cevimeline, with no time delay, was administered. Saliva flow was measured as before. Results are shown in FIG. 5 (▪, square), where the combination is referred to as THVD-102.

healthy human subject [3] = test: Stimulated saliva flow, case study of oxybutynin and pilocarpine alone and combined (Example 4); format: in vivo; details: FIG. 1; for amount of saliva flow collected over 2 minute periods after dosing (in words): single agent alone (oxybutynin HCl 5 mg; pilocarpine HCl), single healthy subject, 8 hour period; for time at which saliva flow reached the pre-dose level: single agent alone, post-dosing
Protocol: (§1) The following measurements are made just prior to and at frequent intervals for up to 6 hours post dose: • Salivary flow is determined by chewing Parafilm for 2 minutes • Dry mouth is determined by VAS • Urine volume/void and frequency over 6 hours post dose is measured • Blood samples are taken for pharmacokinetics at pre-dose, and at 0.5, 1, 2, 3, 4, and 6 hours post dose • Food and water intake are standardized over the 6 hour period
In this study, the effect of oxybutynin, pilocarpine, the combination of the two, and placebo was measured in six separate, yet identical, studies in a single individual.
Effect of Oxybutynin—A healthy human subject was given a 5 mg dose of oxybutynin HCl and the amount of salivation was measured with time over an 8 hour period. […]

[4] = Plasma concentration of oxybutynin after 5 mg oxybutynin alone or followed by 5 mg pilocarpine, four way crossover clinical trial; format: in vivo, human; details: 5 mg pilocarpine 30 min after 5 mg oxybutynin
Protocol: as §1
The study is a double blind, randomized, placebo-controlled, with 4 sequences (4 doses over 4 weeks) with the drugs being administered orally as a single dose. There is a One-week washout between study days. […]
Plasma Concentration of Oxybutynin—In a separate study, the plasma concentration of oxybutynin was measured in two groups of subjects: one group received 5 mg of oxybutynin alone and another group received 5 mg of oxybutynin followed by 5 mg pilocarpine after 30 min. The plasma concentrations were measured before the administration of oxybutynin and in hours 1, 2, 3, 4, and 6 after its administration. […]

[5] = Time −0.17 hr (pre-dose), text gives saliva flow in g/2 min

Row | Compound | Amount of Saliva Collecetd over 2 min (healthy human subject [2]; Time 0 hr) | Amount of Saliva Collecetd over 2 min (healthy human subject [2]; Time 0.5 hr) | Amount of Saliva Collecetd over 2 min (healthy human subject [2]; Time 1 hr) | Amount of Saliva Collecetd over 2 min (healthy human subject [2]; Time 1.5 hr) | Amount of Saliva Collecetd over 2 min (healthy human subject [2]; Time 2 hr) | Amount of Saliva Collecetd over 2 min (healthy human subject [2]; Time 3 hr) | Amount of Saliva Collecetd over 2 min (healthy human subject [2]; Time 4 hr) | Amount of Saliva Collecetd over 2 min (healthy human subject [2]; Time 5 hr) | Amount of Saliva Collecetd over 2 min (healthy human subject [2]; Time 6 hr) | Amount of Saliva Collecetd over 2 min (healthy human subject [2]; Time 8 hr) | Amount of Saliva Collecetd over 2 min (healthy human subject [2]; [5]) | amount of saliva flow collected over 2 minute periods after dosing (in words) (healthy human subject [2]; FIG. 5) | time at which saliva flow reached the pre-dose level (healthy human subject [2]; FIG. 5) | amount of saliva flow collected over 2 minute periods after dosing (in words) (healthy human subject [3]) | time at which saliva flow reached the pre-dose level (healthy human subject [3]) | other results
1 | Cc1ccc(O)c([C@H](CCN(C(C)C)C(C)C)c2ccccc2)c1 (stereo in doubt) [tolterodine, (R)-2-[3-[bis(1-methylethyl-amino]-1-phenylpropyl]-4-methylphenol [R—(R*,R*)]-2,3-dihydroxybutanedionic acid] | – | – | – | – | – | – | – | – | – | – | – | – | – | – | – | time after which saliva flow started increasing again (healthy human subject [1]): about 4 hrs; amount of saliva flow collected over 2 minute periods after dosing (in words) (healthy human subject [1]; 8 hour period, FIGS. 6 and 7): decreased; time at which saliva flow reached the pre-dose levels (healthy human subject [1]; not completely reached at end of observation): > 8 h
2 | CC1OC2(CS1)CN1CCC2CC1 (stereo not shown) [Cevimeline, cevimeline] | 2.6273 | 2.7791 | 4.1213 | 4.6029 | 3.7314 | 3.5888 | 3.5914 | 2.6099 | 2.205 | 1.7973 | 2.4808 | increased sharply | about 6 hrs | – | – | time of peak saliva flow (healthy human subject [2]; 30 mg cevimeline alone, FIG. 5): close to two hours; Amount of Saliva Collecetd over 2 min (healthy human subject [2]; Time 2.5 hr): 3.7641; Amount of Saliva Collecetd over 2 min (healthy human subject [2]; Time 3.5 hr): 3.9316
3 | CCN(CC)CC#CCOC(=O)C(O)(c1ccccc1)C1CCCCC1 (stereo not shown) [Oxybutynin, oxybutynin] | 2.4536 | 1.8558 | 1.2308 | 1.2326 | 1.3548 | 1.1829 | 1.5868 | 2.1475 | 2.0096 | 2.3028 | 2.2208 | decreased | 8 h | decreased | 8 h | time after which saliva flow started increasing again (healthy human subject [2]; 5 mg oxybutynin HCl alone, FIG. 5): 3 h; time after which saliva flow started increasing again (healthy human subject [3]; 5 mg oxybutynin HCl alone): 3 h
4 | CC[C@@H]1C(=O)OC[C@@H]1Cc1cncn1C [pilocarpine] | – | – | – | – | – | – | – | – | – | – | – | – | – | increased sharply | about 5 hrs | effect of pilocarpine on the plasma concentration of oxybutynin [4]: does not affect the plasma concentration of oxybutynin at all; time of peak saliva flow (healthy human subject [3]; pilocarpine HCl alone): half an hour
